Data published in patent US20140162879A1, “SYNERGISTIC WEED CONTROL FROM APPLICATIONS OF AMINOCYCLOPYRACHLOR AND 2,4 DICHLOROPHENOXYACETIC ACID (2,4-D)” (Dow AgroSciences LLC, priority 2012, published 2014).
Counter-ions that a name gives are not always drawn.

Legend:
[1] = test system: Melochia parviflora (MEOPA); assay: Field trial, post-emergence foliar application, weed control rating; format: in vivo; conditions: 58-62 days
Procedure: (§1) As described in the Herbicide Handbook of the Weed Science Society of America, Ninth Edition, 2007, p. […] In some embodiments, the damage or injury to the undesired vegetation caused by the compositions and methods disclosed herein is evaluated using a scale from 0% to 100%, when compared with the untreated control vegetation, wherein 0% indicates no damage to the undesired vegetation and 100% indicates complete destruction of the undesired vegetation. […] 22 (1967)
(§2) Field trials were conducted with applications made to established grassland with naturally occurring weed populations. The target plants were treated with postemergence foliar applications when they were at the beginning of flowering stage and 50 centimeters (cm) (19.7 inches (in)) tall for Senna obtusifolia plants and at the flowering stage and 70-90 cm (27.6-35.4 in) for Melochia parviflora plants. All treatments were applied using a randomized complete block trial design, with 4 replications per treatment.
(§3) Treatments consisted of aminocyclopyrachlor in acid form and the dimethylamine salt of 2,4-D, each in water and applied alone or in combination. Spray solutions were prepared using an appropriate amount of dilution to form a 2.4 liter (L) aqueous spray solution with active ingredients in single and two way combinations. Formulated compounds were applied to the plant material with a backpack sprayer equipped with 8003 nozzles calibrated to deliver 42.8 gallons per acre (gal/acre) (400 liters per hectare (L/ha)) at a spray height of 18-20 inches (45-51 centimeters (cm)) above average plant canopy.
(§4) The treated plants were Senna obtusifolia (CASOB, java bean), or Melochia parviflora (MEOPA). The treated plots and control plots were rated blind at various intervals after application. Ratings were based on a scale of 0-100%, as discussed above, wherein 0% indicates no damage to the undesired vegetation and 100% indicates complete destruction of the undesired vegetation
(§5) Colby's equation was used to determine the herbicidal effects expected from the mixtures, as described above. The results were measured at 42 days or 58-62 days after the first application of the compositions. […] The herbicide tank mix combinations tested, application rates and ratios employed, plant species tested, and results are given below.

[2] = test system: Senna obtusifolia (CASOB, java bean); assay: as above; format: in vivo
Procedure: as §1, §2, §3, §4, §5

Structure (SMILES) | Mean % weed control ([1]; aminocyclopyrachlor alone 35 g ae/ha) [%] | Mean % weed control ([1]; aminocyclopyrachlor alone 70 g ae/ha) [%] | Mean % weed control ([1]; aminocyclopyrachlor alone 140 g ae/ha) [%] | Mean % weed control ([1]; aminocyclopyrachlor alone 210 g ae/ha) [%] | Mean % weed control ([2]; aminocyclopyrachlor alone 35 g ae/ha, 42 days after application) [%] | Mean % weed control ([1]; dimethylamine salt of 2,4-D alone 1120 g ae/ha) [%] | Mean % weed control ([2]; dimethylamine salt of 2,4-D alone 1120 g ae/ha, 42 days) [%]
Nc1nc(C2CC2)nc(C(=O)O)c1Cl [Aminocyclopyrachlor, 6-amino-5-chloro-2-cyclopropylpyrimidine-4-carboxylic acid] | 6.8 | 10.0 | 52.1 | 81.8 | 72.0 | – | –
O=C(O)COc1ccc(Cl)cc1Cl [Dimethylamine salt of 2,4-D, 2,4-dichlorophenoxyacetic acid] | – | – | – | – | – | 24.4 | 64.3
